SMILES strings stand for the structures. Converted amounts (≈) assume the structure as drawn. Bounds are passed on as bounds.

These results are taken from patent US20040110802A1, “Antibacterial benzoic acid derivatives” (priority 2002, published 2004).

The subject of the assay is SAUR 9218. The assay is described as follows: MIC Test Method, standard agar dilution. The format is cell-based. As to conditions: agar dilution, Mueller Hinton agar, incubated overnight at 35° C.; lowest concentration that inhibits visible growth; read-out: SAUR 9218 MIC. A digest of the protocol: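 Agar dilution in Mueller Hinton agar with serial 2-fold compound dilutions. Staphylococcus aureus strain 9218 spotted at approximately 10^4 to 10^5 cells per spot, incubated overnight at 35 °C; MIC (μg/ml) is the lowest concentration preventing visible growth.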
For orientation: Agar dilution tests growth on a series of plates holding different concentrations.
As usually defined, the MIC is the least concentration at which growth counts as inhibited. On to `O=C(Nc1ccc(Cl)cc1C(=O)O)c1cc(CCCc2ccccc2)on1`, for which the MIC came out at 0.5 µg/mL (≈ 1.3 µM).

With `CN(C)S(=O)(=O)Nc1ccc2onc(C(=O)Nc3ccc(C#N)cc3C(=O)O)c2c1`, the minimum inhibitory concentration (MIC) amounted to 0.5 µg/mL (≈ 1.16 µM).

In the case of `N#Cc1ccc(NC(=O)c2noc3cc(NS(=O)(=O)c4ccc(F)cc4)ccc23)c(C(=O)O)c1`, the MIC turned out to be 0.5 µg/mL (≈ 1.04 µM).

For the compound `O=C(Nc1ccc(Br)cc1C(=O)O)c1ccc2c(c1)C(=O)N(CC1CCCO1)C2=O` (stereo not drawn), the minimal inhibitory concentration (MIC) is 8 µg/mL (≈ 16.9 µM).

For the compound `N#Cc1ccc(NC(=O)c2cc(CN3CCOCC3)on2)c(C(=O)O)c1`, the minimal inhibitory concentration (MIC) amounted to 16 µg/mL (≈ 44.9 µM).

Turning to `CCC(C)Sc1ccc(C(=O)Nc2ccc(C#N)cc2C(=O)O)cn1` (stereo not drawn), the MIC worked out at 0.5 µg/mL (≈ 1.41 µM).

In the case of `COc1cc2c(cc1OC)CN(S(=O)(=O)c1cc(C(=O)Nc3ccc(C#N)cc3C(=O)O)sc1C)CC2`, the minimum inhibitory concentration (MIC) came to 8 µg/mL (≈ 14.8 µM).

Take `CCCCCSc1cnc(C(=O)Nc2ccc(Br)cc2C(=O)O)cn1`: the minimum inhibitory concentration (MIC) is 0.25 µg/mL (≈ 0.589 µM).

Consider `Cn1c(C(=O)Nc2cccc3cc(C(=O)Nc4ccc(C#N)cc4C(=O)O)[nH]c23)cc2ccccc21`, for which the minimal inhibitory concentration (MIC) was determined as 0.125 µg/mL (≈ 0.262 µM).

Regarding `O=C(O)c1cc(Br)ccc1NC(=O)c1c[nH]c2ccccc12`, the MIC is 4 µg/mL (≈ 11.1 µM).

On to `CNS(=O)(=O)c1ccc2onc(C(=O)Nc3ccc(C#N)cc3C(=O)O)c2c1`, for which the MIC is 0.06 µg/mL (≈ 0.15 µM).

As for `O=C(Nc1ccc(Br)cc1C(=O)O)c1cc(OCc2ccccc2)ccn1`, the MIC was determined as 4 µg/mL (≈ 9.36 µM).

In the case of `N#Cc1ccc(NC(=O)c2noc3ccc(NC(=O)C4CCC4)cc23)c(C(=O)O)c1`, the minimal inhibitory concentration (MIC) amounted to 2 µg/mL (≈ 4.95 µM).

Turning to `N#Cc1ccc(NC(=O)c2cc3cccc(NC(=O)c4ccc(Br)cc4)c3[nH]2)c(C(=O)O)c1`, the minimum inhibitory concentration (MIC) came out at 0.25 µg/mL (≈ 0.497 µM).

For the compound `CC1=C(C(=O)Nc2ccc(C#N)cc2C(=O)O)Cc2ccccc21`, the MIC was found to be 4 µg/mL (≈ 12.6 µM).

Take `O=C(Nc1ccc(Br)cc1C(=O)O)c1c[nH]c(SCc2ccccc2)n1`: the MIC was over 128 µg/mL.

For the compound `N#Cc1ccc(NC(=O)c2cncc(C#Cc3ccccc3)c2)c(C(=O)O)c1`, the MIC turned out to be 4 µg/mL (≈ 10.9 µM).

As to `N#Cc1ccc(NC(=O)c2cc3cccc(NC(=O)Cc4ccc5c(c4)OCO5)c3[nH]2)c(C(=O)O)c1`, the minimum inhibitory concentration (MIC) was determined as 0.5 µg/mL (≈ 1.04 µM).

Consider `O=C(Nc1ccc(Br)cc1C(=O)O)c1cc(-c2ccc3c(c2)OCO3)on1`, for which the MIC was 0.125 µg/mL (≈ 0.29 µM).

On to `Cn1c(C(=O)Nc2ccc(I)cc2C(=O)O)cc2ccccc21`, for which the MIC was 4 µg/mL (≈ 9.52 µM).

For `O=C(Nc1ccc(Br)cc1C(=O)O)c1ccc(-c2cccc(C(F)(F)F)c2)o1`, the MIC came to 16 µg/mL (≈ 35.2 µM).

Regarding `Cc1sc(C(=O)Nc2ccc(Br)cc2C(=O)O)cc1S(=O)(=O)NCc1ccc(N(C)C)cc1`, the minimum inhibitory concentration (MIC) came out at 16 µg/mL (≈ 29 µM).

For `Cc1ccccc1-c1cnc(C(=O)Nc2ccc(C#N)cc2C(=O)O)cn1`, the minimal inhibitory concentration (MIC) stood at 32 µg/mL (≈ 89.3 µM).

On to `O=C(Nc1ccc(Br)cc1C(=O)O)c1csc(S(=O)(=O)N2CCN(c3cccc(C(F)(F)F)c3)CC2)c1`, for which the MIC came to 16 µg/mL (≈ 25.9 µM).

`Cc1nc(S(=O)(=O)Nc2cccc3cc(C(=O)Nc4ccc(C#N)cc4C(=O)O)n(C)c23)cn1C`: the minimum inhibitory concentration (MIC) stood at 1 µg/mL (≈ 2.03 µM).

For `CCOc1nc(SCc2ccccc2)ncc1C(=O)Nc1ccc(C#N)cc1C(=O)O`, the minimal inhibitory concentration (MIC) worked out at 8 µg/mL (≈ 18.4 µM).

`CC(C)(C)CC(=O)Nc1cccc2cc(C(=O)Nc3ccc(C#N)cc3C(=O)O)[nH]c12`: the minimal inhibitory concentration (MIC) was determined as 2 µg/mL (≈ 4.78 µM).

In the case of `O=C(Nc1ccc(Br)cc1C(=O)O)c1csc(S(=O)(=O)NC2CCN(Cc3ccccc3)CC2)c1`, the MIC came out at 64 µg/mL (≈ 111 µM).

For `O=C(Nc1ccc(Br)cc1C(=O)O)c1cc(SCc2ccccc2)ccn1`, the MIC turned out to be 2 µg/mL (≈ 4.51 µM).

On to `N#Cc1ccc(NC(=O)c2cc3cccc(NC(=O)Cc4c(Cl)cccc4Cl)c3[nH]2)c(C(=O)O)c1`, for which the MIC is 0.25 µg/mL (≈ 0.493 µM).

As for `Cn1c(C(=O)Nc2ccc(C#N)cc2C(=O)O)cc2cccc(NC(=O)c3cccc(S(=O)(=O)N4CCOCC4)c3)c21`, the MIC worked out at 2 µg/mL (≈ 3.4 µM).

Regarding `COc1cnc(C(=O)Nc2ccc(Br)cc2C(=O)O)cn1`, the minimal inhibitory concentration (MIC) was found to be 4 µg/mL (≈ 11.4 µM).

Turning to `Cc1c(S(=O)(=O)Nc2ccc(F)c(Cl)c2)csc1C(=O)Nc1ccc(Br)cc1C(=O)O`, the MIC worked out at 64 µg/mL (≈ 117 µM).

Take `Cc1sc(C(=O)Nc2ccc(Br)cc2C(=O)O)cc1S(=O)(=O)N(C)c1ccc(Cl)cc1`: the minimal inhibitory concentration (MIC) was found to be 2 µg/mL (≈ 3.68 µM).

For `Cc1c(S(=O)(=O)N2CCN(c3cccc(C(F)(F)F)c3)CC2)csc1C(=O)Nc1ccc(Br)cc1C(=O)O`, the MIC worked out at 16 µg/mL (≈ 25.3 µM).

As to `N#Cc1ccc(NC(=O)c2noc3ccc([N+](=O)[O-])cc23)c(C(=O)O)c1`, the MIC turned out to be 0.25 µg/mL (≈ 0.71 µM).

Consider `CC12CCC(C(=O)Nc3cccc4cc(C(=O)Nc5ccc(C#N)cc5C(=O)O)[nH]c34)(OC1=O)C2(C)C` (stereo not drawn), for which the minimum inhibitory concentration (MIC) was 8 µg/mL (≈ 16 µM).

Consider `Cc1ccccc1CC(=O)Nc1cccc2cc(C(=O)Nc3ccc(C#N)cc3C(=O)O)[nH]c12`, for which the MIC was 0.25 µg/mL (≈ 0.553 µM).

Consider `O=C(Nc1ccc(Br)cc1C(=O)O)c1cc2cccc(S(=O)(=O)c3ccccc3)c2[nH]1`, for which the minimum inhibitory concentration (MIC) is 0.125 µg/mL (≈ 0.25 µM).

As for `O=C(Nc1ccc(I)cc1C(=O)O)c1cnc(SCc2ccccc2)cn1`, the minimum inhibitory concentration (MIC) came to 1 µg/mL (≈ 2.04 µM).

Consider `COCC(=O)Nc1cccc2cc(C(=O)Nc3ccc(C#N)cc3C(=O)O)[nH]c12`, for which the MIC is 4 µg/mL (≈ 10.2 µM).

Regarding `N#Cc1ccc(NC(=O)c2cncc(-c3ccc(Cl)cc3)c2)c(C(=O)O)c1`, the MIC is over 128 µg/mL.

With `N#Cc1ccc(NC(=O)c2cc3ccccc3[nH]2)c(C(=O)O)c1`, the MIC turned out to be 2 µg/mL (≈ 6.55 µM).

Take `CC1=C(C(=O)Nc2ccc(Br)cc2C(=O)O)Cc2ccccc21`: the minimal inhibitory concentration (MIC) came to 8 µg/mL (≈ 21.5 µM).

`N#Cc1ccc(NC(=O)c2cc3cccc(NC(=O)c4ccccc4O)c3[nH]2)c(C(=O)O)c1`: the minimum inhibitory concentration (MIC) amounted to 1 µg/mL (≈ 2.27 µM).

With `C[C@@H](CBr)COc1ccccc1-c1cc(C(=O)Nc2ccc(C#N)cc2C(=O)O)no1`, the MIC was 0.5 µg/mL (≈ 1.03 µM).

Consider `N#Cc1ccc(NC(=O)c2n[nH]c3ccccc23)c(C(=O)O)c1`, for which the MIC was 16 µg/mL (≈ 52.2 µM).

In the case of `Cc1sc(C(=O)Nc2ccc(C#N)cc2C(=O)O)cc1S(=O)(=O)N1CCC(O)(c2ccc(Br)cc2)CC1`, the minimal inhibitory concentration (MIC) was 32 µg/mL (≈ 52.9 µM).

Turning to `CN(c1ccc(Cl)cc1)S(=O)(=O)c1ccc(C(=O)Nc2ccc(Br)cc2C(=O)O)o1`, the MIC came out at 16 µg/mL (≈ 31.1 µM).

On to `Cc1sc(C(=O)Nc2ccc(C#N)cc2C(=O)O)cc1S(=O)(=O)N1CCCC1CN1CCCC1` (stereo not drawn), for which the MIC was 128 µg/mL (≈ 255 µM).

Consider `O=C(Nc1ccc(Br)cc1C(=O)O)c1ncc(-c2ccc(F)cc2)o1`, for which the MIC was 2 µg/mL (≈ 4.94 µM).

Turning to `Cn1c(C(=O)Nc2ccc(C#N)cc2C(=O)O)cc2cccc(NC(=O)NCc3ccccc3)c21`, the MIC amounted to 0.125 µg/mL (≈ 0.267 µM).

With `CCCCSc1cnc(C(=O)Nc2ccc(Cl)cc2C(=O)O)cn1`, the minimum inhibitory concentration (MIC) came to 0.5 µg/mL (≈ 1.37 µM).

In the case of `CCSc1cncc(C(=O)Nc2ccc(C#N)cc2C(=O)O)c1`, the MIC was found to be 1 µg/mL (≈ 3.05 µM).

Take `Cn1c(C(=O)Nc2ccc(C#N)cc2C(=O)O)cc2cccc(-c3ccccc3C(F)(F)F)c21`: the minimal inhibitory concentration (MIC) is 0.06 µg/mL (≈ 0.129 µM).

Take `N#Cc1ccc(NC(=O)c2cc(-c3ccccc3OCC3CCCCO3)on2)c(C(=O)O)c1` (stereo not drawn): the minimum inhibitory concentration (MIC) worked out at 2 µg/mL (≈ 4.47 µM).

Consider `N#Cc1ccc(NC(=O)c2cncc(-c3cnccn3)c2)c(C(=O)O)c1`, for which the minimal inhibitory concentration (MIC) came to 16 µg/mL (≈ 46.3 µM).

For the compound `CCN(CC)CCN(CC)S(=O)(=O)c1cc(C(=O)Nc2ccc(C#N)cc2C(=O)O)sc1C`, the MIC was 128 µg/mL (≈ 260 µM).

Turning to `N#Cc1ccc(NC(=O)c2cnc(SCc3ccccc3)cn2)c(C(=O)O)c1`, the MIC turned out to be 0.125 µg/mL (≈ 0.32 µM).

As to `Cc1cc(C(=O)Nc2ccc(C#N)cc2C(=O)O)no1`, the minimal inhibitory concentration (MIC) is 4 µg/mL (≈ 14.7 µM).

Consider `O=C(Nc1ccc(Cl)cc1C(=O)O)c1cc(CCCC2CCCCC2)on1`, for which the MIC is 4 µg/mL (≈ 10.2 µM).

Regarding `Cc1nn(C)c(Cl)c1S(=O)(=O)Nc1cccc2cc(C(=O)Nc3ccc(C#N)cc3C(=O)O)n(C)c12`, the MIC amounted to 0.125 µg/mL (≈ 0.237 µM).

As for `Cc1sc(C(=O)Nc2ccc(C#N)cc2C(=O)O)cc1S(=O)(=O)N1CCC(C)CC1`, the minimal inhibitory concentration (MIC) stood at 8 µg/mL (≈ 17.9 µM).
